Our source for the cytotoxicity values is ChEMBL document CHEMBL3507680, “University of Dundee, Gates Library screen for HepG2 cell viability”.

This data set can be described thus: Human HepG2 cell viability assay in 384 well format. It counts as toxicity, cell-based. The arrangement: dose 125 nL, time 70.5 hour; cytotoxicity at 70.5 h: concentration not given beside the values. The conditions noted are these: HepG2 cells, read-out: Inhibition.
As for `NCC(c1cccnc1)N1CCOCC1` (stereo not given), the cytotoxicity at 70.5 h is -4.26%.
For `CN(C)CCOCC1CN(C(=O)[C@H]2CCCO2)Cc2ccnn2C1` (stereo not given in full), the cytotoxicity at 70.5 h was -1.09%.
For `CN(C)C(=O)N1CCc2c(CNc3ncccn3)cncc2C1`, the cytotoxicity at 70.5 h was -2.83%.
On to `CCS(=O)(=O)N1CCC2(CC(=O)N(c3cccc(C)c3)C2)C1` (stereo not given), for which the cytotoxicity at 70.5 h is -4.67%.
As for `O=C(N[C@@H]1CN(c2ncccn2)[C@@H]2CCCO[C@@H]21)c1cnccn1`, the cytotoxicity at 70.5 h was -1.73%.
As for `O=C([C@H]1C[C@H]2OCC[C@H]2N(C(=O)C2CCOCC2)C1)N1CCCCO1`, the cytotoxicity at 70.5 h was -2.55%.
For `CC(C)NC(=O)[C@@H]1CCO[C@@H]2CCN(c3ncccn3)C[C@H]21`, the cytotoxicity at 70.5 h is 0.612%.
In the case of `O=C([C@H]1C[C@H]2OCC[C@H]2N(Cc2ccncc2)C1)N1CCCCO1` it was -0.173%.
The figure for `O=C([C@H]1COC[C@H]2CN(Cc3ccco3)C[C@H]21)N1CCCO1` is 5.11%; for `CCc1cnc(N2CC3(CCN(C(=O)c4ccoc4)C3)C2)nc1` it is -1.44%; for `COCC1CN(C(=O)CNC(C)=O)Cc2ncnn2C1` (stereo not given) it is -8.02%.
In the case of `CC(=O)N1[C@H](Cn2cncn2)C[C@@H]2CN(S(C)(=O)=O)CC[C@@H]21`, the cytotoxicity at 70.5 h is -8.6%.
In the case of `Cn1cc(CN2CC[C@H]3C[C@H](c4nc(C5CC5)cs4)O[C@@H]3C2)cn1` it was -12.5%.
The figure for `Cn1ccnc1CN1CCC2(COCCN(Cc3ccsc3)C2)C1` (stereo not given) is -11.4%; for `Cc1ccc2c(c1)CCC21CCN(C(=O)CO)CC1` it is -8.48%.
For `COCC1CN(Cc2ccc(C)o2)Cc2ncn(CC3CC3)c21` (stereo not given), the cytotoxicity at 70.5 h is -8.02%.
In the case of `CCN1C(=O)C2(CCOCC2)c2cc(NC(=O)c3ccco3)ccc21` it was -8.84%.
Consider `O=C(C1=CC2(CCNCC2)c2ccccc21)N1CCCC1`, for which the cytotoxicity at 70.5 h is -14.7%.
As for `O=C(c1cnccn1)N1CCN2C[C@H](OCc3ccccn3)C[C@H]2C1`, the cytotoxicity at 70.5 h was -10.5%.
In the case of `O=C(C1CCOCC1)N1CCc2ncnc(-c3ccc(F)cc3)c2CC1` it was -11.3%; in that of `O=C(C1CCC1)N1CCC2(COCc3cnc(N4CCOCC4)nc32)C1` (stereo not given), 8.28%; in that of `CN(C)CC(=O)N1Cc2nc(C(=O)NCc3ccncc3)oc2C1`, -14.7%.
The figure for `COCCNC(=O)[C@@H]1CC[C@@H]2[C@@H](CCN2Cc2cnn(C)c2)O1` is -18.7%.
In the case of `O=C(C1=CCCC1)N1CCO[C@H]2[C@@H](OCC3CC3)CC[C@@H]21` it was -17.4%.
On to `Cc1ccoc1C(=O)N1CC[C@H]2O[C@@H](C)C[C@H]2C1`, for which the cytotoxicity at 70.5 h was -10.2%.
The figure for `Cc1noc(C)c1CN1CC[C@H]2OCC[C@@H](C(=O)N3CCCO3)[C@@H]2C1` is -14.6%.
In the case of `CC(C)N(C)C(=O)C1=NOC2(CCN(C(=O)c3ccccn3)C2)C1` (stereo not given), the cytotoxicity at 70.5 h is -9.35%.
As for `CC(=O)N1CCC2(CC1)CC(Oc1ccccc1)CO2` (stereo not given), the cytotoxicity at 70.5 h is -7.56%.
In the case of `CC(C)N1CCOCC2(CN(Cc3ccco3)CCO2)C1` (stereo not given) it was -8.16%.
As for `O=C(c1ccsc1)N1CCc2c(COCc3ccncc3)cncc2C1`, the cytotoxicity at 70.5 h is -9.93%.
The figure for `CN(C)C(=O)CN1CCC2(CC1)CN(S(C)(=O)=O)Cc1ccccc1O2` is -4.65%; for `Cc1csc(C(Cc2cccs2)NCc2cc3c(cc2C)OCO3)n1` (stereo not given) it is 17.6%; for `CSCC[C@H]1CN2CCC[C@H]2CN1Cc1coc2ccc(C)cc2c1=O` it is 1.94%.
In the case of `CCn1ccc(C(=O)N2CCCC2c2nnc(-c3scnc3C)o2)n1` (stereo not given) it was -6.79%; in that of `O=C(CCOc1ccccc1F)NC1CCCN(c2ccccn2)C1` (stereo not given), -5.44%.
In the case of `COc1cc(OC)cc(C(=O)N2CCOCC2c2[nH]ncc2C)c1` (stereo not given), the cytotoxicity at 70.5 h worked out at 18%.
The figure for `CCn1cc(C(=O)N(C)[C@@H]2CC[C@@H](N3CCCC3)[C@@H]2O)c(C)n1` is -5.26%.
The figure for `Cc1n[nH]c(C)c1CCC(=O)N1CCC(O)(CN2CCN(C)CC2)C1` (stereo not given) is -6.92%; for `CN(C1CCCN(c2ccccn2)C1)S(C)(=O)=O` (stereo not given) it is -3.73%; for `Cc1ccn(CCC(=O)N2CCCC2c2nnc(-c3scnc3C)o2)n1` (stereo not given) it is 11.6%.
On to `Cc1ncsc1-c1nnc(C2CCCN2C(=O)Cn2cccn2)o1` (stereo not given), for which the cytotoxicity at 70.5 h was 3.13%.
In the case of `Cc1ccc(CN2CCCC(c3cnccn3)C2)s1` (stereo not given) it was -1.38%.
Turning to `COc1ccc2c(c1)C(=O)NC1(CC2)CCN(Cc2ccncc2)C1` (stereo not given), the cytotoxicity at 70.5 h is -0.942%.
In the case of `O=C(Cc1ccccc1)NCc1ncc(-c2ccccc2C(=O)O)cn1` it was -4.73%; in that of `Cc1cc(N2CCCC2(C)c2nc(C)cc(C(=O)N(C)C)n2)ncn1` (stereo not given), -2.78%; in that of `Cc1ccc(CN2CCC(c3cnccn3)CC2)s1`, -3.44%.
Regarding `CC(C)N1CCCC1c1cc(C(F)(F)F)[nH]n1` (stereo not given), the cytotoxicity at 70.5 h is 0.712%.
In the case of `CN(C)c1cc(C2CCCN(Cc3cnn(C)c3)C2)ccn1` (stereo not given) it was -0.665%; in that of `Fc1ccc(-c2cnc(C3CCNCC3)cn2)cc1`, -2.13%.
The figure for `Cc1n[nH]c(C)c1CCC(=O)N1CCC(O)(CN2CCOCC2)C1` (stereo not given) is 15.2%; for `CN(C)[C@@H]1CN(C(=O)c2cc3ccc(F)cc3[nH]2)C[C@H]1O` it is -2.24%.
Turning to `Cn1nccc1CCC(=O)NC1CCCN(c2ccccn2)C1` (stereo not given), the cytotoxicity at 70.5 h is -1.31%.
The figure for `CC(C)n1nnc(CC(=O)NCC2(c3cccc(F)c3)CCCC2)n1` is 15.1%; for `CC(C)N1CC[C@@](C)(O)[C@H](n2ccc(=O)[nH]c2=O)C1` it is -7.14%.
Turning to `Cn1c(=O)[nH]c(=O)c2c1nc1n2CC(c2ccc(Br)cc2)O1` (stereo not given), the cytotoxicity at 70.5 h is -3.88%.
In the case of `O=C(NCc1ccco1)c1cc[n+]([O-])cc1` it was -4.13%; in that of `O=C(O)C1CN(c2cncc(Cc3ccccc3F)n2)C1`, -6.79%.
In the case of `CCn1ncc(CN2CCCC(n3c(=O)oc4ccccc43)C2)c1C` (stereo not given) it was -3.68%.
The figure for `Cn1cc([C@@H]2CN(S(C)(=O)=O)C[C@H]2N)c2ccncc21` is 19%.
Take `CN1CCCCC1c1cncc(Cl)n1` (stereo not given): the cytotoxicity at 70.5 h is -0.934%.
The figure for `CC1CCN(c2cncc(CCC3CCCN3)n2)CC1` (stereo not given) is -8.58%; for `Cc1nccn1CCC1CCNCC1` it is -4.48%; for `CNC(=O)c1nc2c(s1)CCN(C(=O)c1cccnc1)CC2` it is -0.11%.
The figure for `Cc1ccc(CN2CCc3ncnc(C4CCOC4)c3CC2)s1` (stereo not given) is 2.16%; for `Cn1cc(CN2CCn3cc(CNC(=O)C4CCC4)nc3C2)cn1` it is 2.26%; for `Cc1ccc(C(=O)N2CCC3(CC2)NC(=O)CC3c2ccccc2)cn1` (stereo not given) it is 5.79%.
The figure for `O=C1NC(c2ccccc2)=N[C@@]12CC[C@@H]1CN(Cc3ccccc3)C[C@@H]12` is 0.309%.
Turning to `O=S(=O)(c1cccs1)N1CCCn2nnc(CN3CCCCC3)c2C1`, the cytotoxicity at 70.5 h was 0.152%.
The figure for `CC(=O)N1CC(=O)N(c2ccccc2)CC12CCN(Cc1cccs1)C2` (stereo not given) is -5.96%.
The figure for `CN(C)CCN1C[C@@H]2CN(C(=O)c3ccsc3)C[C@@H]2C1=O` is -2.41%; for `CN(C)Cc1cc(=O)n2c(n1)CN(C(=O)Cc1ccsc1)CCC2` it is -12.5%; for `CN1CCN(C(=O)Cc2cccc(F)c2)Cc2cccnc21` it is -5.94%.
Take `Cc1ccc2c(n1)N(C)CCN(C(=O)NC1CC1)C2`: the cytotoxicity at 70.5 h was 25.2%.
In the case of `CCN(C)c1ncnc2c1CCN(C(=O)N1CCCC1)CC2` it was -12.4%; in that of `CC(C)CN1CCC2(C=C(C(=O)N3CCCC3)c3ccccc32)CC1`, -15.8%; in that of `O=C([C@@H]1CC[C@@H]2[C@@H](CCN2Cc2cccc(F)c2)O1)N1CCCCO1`, 5.95%.
The figure for `CCS(=O)(=O)N1CCOC2(CCCN(c3ccc(C)nn3)C2)C1` (stereo not given) is -11.8%; for `CN1CCN(C(=O)NC2CC2)Cc2cccnc21` it is 0.459%.
The figure for `Cc1noc(C)c1CN1CC[C@H]2OCC[C@@H](C(=O)NCC3CC3)[C@@H]2C1` is -3.12%; for `CC(C)n1cnc2c1C(C(=O)NCCC#N)N(Cc1ccccc1)CC2` (stereo not given) it is -16.7%; for `CCOCC1CN(C(=O)c2ccncc2)Cc2nn(C)cc21` (stereo not given) it is -18%.
For `CN(C)c1ncc2c(n1)C1(CCN(CC3CC3)C1)COC2` (stereo not given), the cytotoxicity at 70.5 h is -8.15%.
In the case of `Cc1ccc(CN2CC3(CCN(C(=O)c4cscn4)C3)C2)s1` it was -7.12%; in that of `CS(=O)(=O)N1CCOCC2(CN(Cc3ccco3)CCO2)C1` (stereo not given), -3.82%; in that of `Cn1ccnc1CN1CCC2(CC1)CC(Oc1cccnc1)C2`, 1.72%.
In the case of `Cc1ccc(CN2CCCC3(COCCN(Cc4c[nH]nn4)C3)C2)o1` (stereo not given) it was 0.0506%.
In the case of `CN1CCN(C(=O)c2nc3c(o2)CN(C(=O)c2cccnc2)C3)CC1` it was -6.31%; in that of `COCC1CN(Cc2ccncc2)Cc2nnn(CC3CC3)c21` (stereo not given), -10.7%.
As for `COCCN1CCC2(CC1)CC(COC)N(c1ncccn1)C2` (stereo not given), the cytotoxicity at 70.5 h was -9.91%.
The figure for `Fc1ccccc1CN1C[C@@H](OCc2ccncc2)[C@H]2OCCC[C@H]21` is -12.8%; for `CN1CCN(Cc2cn3c(n2)CN(C(=O)N2CCOCC2)CC3)CC1` it is -3.86%.
As for `CN(C)[C@@H]1CCN(c2ncccn2)[C@H]1Cc1ccncc1`, the cytotoxicity at 70.5 h is -5.48%.
Regarding `c1cnc(NCc2noc3c2CN(CCN2CCCC2)CC3)nc1`, the cytotoxicity at 70.5 h is -7.61%.
For `CN(C)c1ncc(CN2CCC(O)(c3ccccc3F)CC2)cn1`, the cytotoxicity at 70.5 h is -2.07%.
In the case of `CC(C)N1CCCC1c1cc(CO)[nH]n1` (stereo not given) it was -4.38%.
